Test results published in patent US9845322B2 (Hoffmann-La Roche Inc., priority 2016, dated 2017).
Read-outs that look alike come from different tables or passages of the source.

System: HBsAg secretion in HepG2.2.15 cells
Assay: HBsAg assay (chemiluminescence immunoassay of secreted HBsAg in culture supernatant)
Type: cell-based, HBV
Summary of the method: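 IC50 taken from dose-response curves as the concentration halving secreted HBsAg relative to DMSO control. Measured by chemiluminescence immunoassay of culture supernatant from constitutively HBV-expressing HepG2.2.15 cells, seeded at 1.5×10^4/well in duplicate and exposed to three-fold serial compound dilutions at 1% final DMSO.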

[1] = Hepatitis B virus, HepG2.2.15, HepG2.2.15 cells, concentration at which HBsAg secretion was reduced by 50% compared to the no drug control, read-out: IC50 (HBsAg assay)
[2] = HepG2.2.15 cells, concentration at which HBsAg secretion was reduced by 50% compared to the no drug control, read-out: IC50 (HBsAg assay)

## COc1cc(F)nc(N2CCc3nc(-c4ccccn4)ncc3C2C)c1 (stereo not drawn) [Example 153, 6-(6-fluoro-4-methoxy-2-pyridyl)-5-methyl-2-(2-pyridyl)-7,8-dihydro-5H-pyrido[4,3-d]pyrimidine]
[1]
  IC50: 22 nM

## CC1c2cnc(-c3ncccn3)nc2CCN1c1cc(O)c(F)c(F)c1 (single isomer, unassigned; (-)) [Example 45, (−)-2,3-difluoro-5-(5-methyl-2-pyrimidin-2-yl-7,8-dihydro-5H-pyrido[4,3-d]pyrimidin-6-yl)phenol]
[2]
  IC50: 176 nM

## CC1c2cnc(-c3ncccn3)nc2CCN1c1cc(F)c(F)c(OCCC2CCCO2)c1 (stereo not drawn) [Example 105, 6-[3,4-difluoro-5-(2-tetrahydrofuran-2-ylethoxy)phenyl]-5-methyl-2-pyrimidin-2-yl-7,8-dihydro-5H-pyrido[4,3-d]pyrimidine]
[1]
  IC50: 23 nM

## CC1c2cnc(-c3ccccn3)nc2CCN1c1cc(F)c(F)c(OCCCN2CCOCC2)c1 (stereo not drawn) [Example 32, 4-[3-[2,3-difluoro-5-[5-methyl-2-(2-pyridyl)-7,8-dihydro-5H-pyrido[4,3-d]pyrimidin-6-yl]phenoxy]propyl]morpholine]
[1]
  IC50: 74 nM

## COc1cc(F)cc(N2CCc3nc(-c4ncccn4)ncc3C2C)c1Cl (single isomer, unassigned; (-)) [Example 131, (−)-6-(2-chloro-5-fluoro-3-methoxy-phenyl)-5-methyl-2-pyrimidin-2-yl-7,8-dihydro-5H-pyrido[4,3-d]pyrimidine]
[1]
  IC50: 2 nM

## COc1cc(F)nc(N2CCc3nc(-c4ncccn4)ncc3C2C)c1Cl (single isomer, unassigned; (-)) [Example 147, (−)-6-(3-chloro-6-fluoro-4-methoxy-2-pyridyl)-5-methyl-2-pyrimidin-2-yl-7,8-dihydro-5H-pyrido[4,3-d]pyrimidine]
[1]
  IC50: 21 nM

## COc1cc(N2CCc3nc(-c4ncccn4)ncc3C2C)cc(Cl)c1F (single isomer, unassigned; (+)) [Example 42, (+)-6-(3-chloro-4-fluoro-5-methoxy-phenyl)-5-methyl-2-pyrimidin-2-yl-7,8-dihydro-5H-pyrido[4,3-d]pyrimidine]
[2]
  IC50: 3250 nM

## CC1c2cnc(-c3ccccn3)nc2CCN1c1ccc([N+](=O)[O-])cc1 (single isomer, unassigned; (-)) [Example 3, (−)-5-methyl-6-(4-nitrophenyl)-2-(2-pyridyl)-7,8-dihydro-5H-pyrido[4,3-d]pyrimidine]
[2]
  IC50: 115 nM

## COc1cc(N2CCc3nc(-c4ncccn4)ncc3C2C)nc(F)c1Cl (single isomer, unassigned; (-)) [Example 146, (−)-6-(5-chloro-6-fluoro-4-methoxy-2-pyridyl)-5-methyl-2-pyrimidin-2-yl-7,8-dihydro-5H-pyrido[4,3-d]pyrimidine]
[1]
  IC50: 2 nM

## CC(=O)N1CCN(CCCOc2cc(N3CCc4nc(-c5ncccn5)ncc4C3C)cc(F)c2F)CC1 (stereo not drawn) [Example 109, 1-[4-[3-[2,3-difluoro-5-(5-methyl-2-pyrimidin-2-yl-7,8-dihydro-5H-pyrido[4,3-d]pyrimidin-6-yl)phenoxy]propyl]piperazin-1-yl]ethanone]
[1]
  IC50: 80 nM

## CC1c2cnc(-c3ccccn3)nc2CCN1c1cc(OCC2CCOC2)cc(F)n1 (stereo not drawn) [Example 188, 6-[6-fluoro-4-(tetrahydrofuran-3-ylmethoxy)-2-pyridyl]-5-methyl-2-(2-pyridyl)-7,8-dihydro-5H-pyrido[4,3-d]pyrimidine]
[1]
  IC50: 29 nM

## CC1c2cnc(-c3ccccn3)nc2CCN1c1cc(OCCCOCC(N)=O)cc(F)n1 (stereo not drawn) [Example 186]
[1]
  IC50: 18 nM

## CC1c2cnc(-c3ncccn3)nc2CCN1c1cc(F)cc(OCC(F)F)c1 (stereo not drawn) [Example 143, 6-[3-(2,2-difluoroethoxy)-5-fluoro-phenyl]-5-methyl-2-pyrimidin-2-yl-7,8-dihydro-5H-pyrido[4,3-d]pyrimidine]
[1]
  IC50: 22 nM

## CC1c2cnc(-c3ccccn3)nc2CCN1c1cc(N2CCOCC2)cc(F)n1 (stereo not drawn) [Example 220, 4-[2-fluoro-6-[5-methyl-2-(2-pyridyl)-7,8-dihydro-5H-pyrido[4,3-d]pyrimidin-6-yl]-4-pyridyl]morpholine]
[1]
  IC50: 21 nM

## CC1c2cnc(-c3ncccn3)nc2CCN1c1cc(OCCCCCCC(=O)O)cc(F)n1 (single isomer, unassigned; (-)) [Example 155, (−)-7-[[2-fluoro-6-[5-methyl-2-pyrimidin-2-yl-7,8-dihydro-5H-pyrido[4,3-d]pyrimidin-6-yl]-4-pyridyl]oxy]heptanoic acid]
[1]
  IC50: 12 nM

## CC1c2cnc(-c3ncccn3)nc2CCN1c1cc(F)c(F)c(OCCCC(N)=O)c1 (stereo not drawn) [Example 52, 4-[2,3-difluoro-5-(5-methyl-2-pyrimidin-2-yl-7,8-dihydro-5H-pyrido[4,3-d]pyrimidin-6-yl)phenoxy]butanamide]
[1]
  IC50: 110 nM

## CC1c2cnc(-c3ncccn3)nc2CCN1c1cc(F)c(F)c(OCCCS(C)(=O)=O)c1 (stereo not drawn) [Example 47, 6-[3,4-difluoro-5-(3-methylsulfonylpropoxy)phenyl]-5-methyl-2-pyrimidin-2-yl-7,8-dihydro-5H-pyrido[4,3-d]pyrimidine]
[2]
  IC50: 36 nM

## COC(=O)COc1cc(N2CCc3nc(-c4ccccn4)ncc3C2C)cc(F)c1F (stereo not drawn) [Example 27, methyl 2-[2,3-difluoro-5-[5-methyl-2-(2-pyridyl)-7,8-dihydro-5H-pyrido[4,3-d]pyrimidin-6-yl]phenoxy]acetate]
[1]
  IC50: 3430 nM

## COc1cc(N2CCc3nc(-c4ncccn4)ncc3C2C)cc(C(F)(F)F)c1 (stereo not drawn) [Example 112, 6-[3-methoxy-5-(trifluoromethyl)phenyl]-5-methyl-2-pyrimidin-2-yl-7,8-dihydro-5H-pyrido[4,3-d]pyrimidine]
[1]
  IC50: 84 nM

## COc1cc(F)nc(N2CCc3nc(-c4ncccn4)ncc3C2C)c1 (single isomer, unassigned; (-)) [Example 138, (−)-6-(6-fluoro-4-methoxy-2-pyridyl)-5-methyl-2-pyrimidin-2-yl-7,8-dihydro-5H-pyrido[4,3-d]pyrimidine]
[2]
  IC50: 11 nM

## CC1c2cnc(-c3ncccn3)nc2CCN1c1cc(OCCCCC(N)=O)cc(F)n1 (single isomer, unassigned; (-)) [Example 158, (−)-5-[[2-fluoro-6-[5-methyl-2-pyrimidin-2-yl-7,8-dihydro-5H-pyrido[4,3-d]pyrimidin-6-yl]-4-pyridyl]oxy]pentanamide]
Hepatitis B virus, HepG2.2.15, read-out: IC50 (HBsAg assay)
  IC50: 16 nM

## COc1cc(N2CCc3nc(-c4ncccn4)ncc3C2C)nc(F)c1I (stereo not drawn) [Example 128, 6-(6-fluoro-5-iodo-4-methoxy-2-pyridyl)-5-methyl-2-pyrimidin-2-yl-7,8-dihydro-5H-pyrido[4,3-d]pyrimidine]
[1]
  IC50: 5 nM

## COc1cc(N2CCc3nc(-c4ccccn4)ncc3C2CC(=O)O)cc(F)c1F (stereo not drawn) [Example 37, 2-[6-(3,4-difluoro-5-methoxy-phenyl)-2-(2-pyridyl)-7,8-dihydro-5H-pyrido[4,3-d]pyrimidin-5-yl]acetic acid]
[1]
  IC50: 4860 nM

## CCCC1c2cnc(-c3ccccn3)nc2CCN1c1cc(F)c(F)c(OC)c1 (single isomer, unassigned; (-)) [Example 14, (−)-6-(3,4-difluoro-5-methoxy-phenyl)-5-propyl-2-(2-pyridyl)-7,8-dihydro-5H-pyrido[4,3-d]pyrimidine]
[2]
  IC50: 2970 nM

## CC1c2cnc(-c3ncccn3)nc2CCN1c1cc(F)cc(NS(C)(=O)=O)n1 (stereo not drawn) [Example 212, N-[4-fluoro-6-(5-methyl-2-pyrimidin-2-yl-7,8-dihydro-5H-pyrido[4,3-d]pyrimidin-6-yl)-2-pyridyl]methanesulfonamide]
[1]
  IC50: 837 nM

## CC1c2cnc(-c3ccccn3)nc2CCN1c1cc(N2CCCC2)cc(F)n1 (stereo not drawn) [Example 224, 6-(6-fluoro-4-pyrrolidin-1-yl-2-pyridyl)-5-methyl-2-(2-pyridyl)-7,8-dihydro-5H-pyrido[4,3-d]pyrimidine]
[1]
  IC50: 13 nM

## CCC1c2cnc(-c3ccccn3)nc2CCN1c1cc(F)c(F)c(OC)c1 (single isomer, unassigned; (+)) [Example 10, (+)-6-(3,4-difluoro-5-methoxy-phenyl)-5-ethyl-2-(2-pyridyl)-7,8-dihydro-5H-pyrido[4,3-d]pyrimidine]
[2]
  IC50: 21900 nM

## CC1c2cnc(-c3ncccn3)nc2CCN1c1cc(F)c(F)c(OCCC2CNC2)c1 (stereo not drawn) [Example 116, 6-[3-[2-(azetidin-3-yl)ethoxy]-4,5-difluoro-phenyl]-5-methyl-2-pyrimidin-2-yl-7,8-dihydro-5H-pyrido[4,3-d]pyrimidine]
[1]
  IC50: 902 nM

## CC1c2cnc(-c3ncccn3)nc2CCN1c1cc(F)c(F)c(OCCCCCCCCN)c1 (stereo not drawn) [Example 55, 8-[2,3-difluoro-5-(5-methyl-2-pyrimidin-2-yl-7,8-dihydro-5H-pyrido[4,3-d]pyrimidin-6-yl)phenoxy]octan-1-amine]
[1]
  IC50: 113 nM

## CC1c2cnc(-c3ccccn3)nc2CCN1c1cc(F)c(F)c(OCCCN)c1 (stereo not drawn) [Example 34, 3-[2,3-difluoro-5-[5-methyl-2-(2-pyridyl)-7,8-dihydro-5H-pyrido[4,3-d]pyrimidin-6-yl]phenoxy]propan-1-amine]
[1]
  IC50: 1710 nM

## COc1cc(N2CCc3nc(-c4ncccn4)ncc3C2C)cc(F)c1Cl (stereo not drawn) [Example 40, 6-(4-chloro-3-fluoro-5-methoxy-phenyl)-5-methyl-2-pyrimidin-2-yl-7,8-dihydro-5H-pyrido[4,3-d]pyrimidine]
[1]
  IC50: 4860 nM

## CC1c2cnc(-c3ncccn3)nc2CCN1c1cc(F)c(F)c(OCCCCCNC(=O)OC(C)(C)C)c1 (stereo not drawn) [Example 56, tert-butyl N-[5-[2,3-difluoro-5-(5-methyl-2-pyrimidin-2-yl-7,8-dihydro-5H-pyrido[4,3-d]pyrimidin-6-yl)phenoxy]pentyl]carbamate]
[1]
  IC50: 55 nM

## CC1c2cnc(-c3ncccn3)nc2CCN1c1cc(OCC2CCOC2)cc(F)n1 (stereo not drawn) [Example 154, 6-[6-fluoro-4-(tetrahydrofuran-3-ylmethoxy)-2-pyridyl]-5-methyl-2-pyrimidin-2-yl-7,8-dihydro-5H-pyrido[4,3-d]pyrimidine]
[1]
  IC50: 7 nM
